# Laboratory results published in ChEMBL document CHEMBL1681705, “Optimisation of ITK inhibitors through successive iterative design cycles” (Bioorg Med Chem Lett, 2011).
# Key:
# [1] = target: T1, Tyrosine-protein kinase ITK/TSK (Homo sapiens, UniProt Q08881); assay: Inhibition of recombinant GST-tagged full-length ITK expressed in baculovirus expression system after 30 mins by scintillation proximity assay
# T1 sequence (Q08881 whole entry): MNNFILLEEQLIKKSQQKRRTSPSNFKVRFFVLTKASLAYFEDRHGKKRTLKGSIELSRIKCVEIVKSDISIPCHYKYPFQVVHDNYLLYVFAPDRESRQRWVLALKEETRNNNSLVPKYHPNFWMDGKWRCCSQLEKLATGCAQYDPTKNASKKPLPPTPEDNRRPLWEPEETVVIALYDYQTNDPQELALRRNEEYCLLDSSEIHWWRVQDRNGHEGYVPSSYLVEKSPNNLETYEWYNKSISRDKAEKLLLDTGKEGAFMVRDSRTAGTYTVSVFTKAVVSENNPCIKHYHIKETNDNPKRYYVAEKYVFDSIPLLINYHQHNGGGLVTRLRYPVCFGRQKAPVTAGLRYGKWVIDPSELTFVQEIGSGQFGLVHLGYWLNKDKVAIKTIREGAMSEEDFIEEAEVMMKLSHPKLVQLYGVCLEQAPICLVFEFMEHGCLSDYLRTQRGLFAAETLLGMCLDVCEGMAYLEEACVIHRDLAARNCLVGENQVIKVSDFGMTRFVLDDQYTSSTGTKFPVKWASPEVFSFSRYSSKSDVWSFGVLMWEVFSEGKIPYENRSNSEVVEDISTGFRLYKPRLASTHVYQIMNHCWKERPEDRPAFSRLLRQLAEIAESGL
# cells = conditions: Homo sapiens, T-cell
# Description: Antiinflammatory activity in human CD4+ T cell assessed as inhibition of anti-CD3/anti-CD28-induced IL-2 production treated 30 mins before anti-CD3/anti-CD28 challenge measured after 48 hrs by electro-chemiluminescence assay
IC50 [1],IC50 (cells),Compound
690 nM,–,c1cnc2c(-c3cc4ccc(CC5CCCCC5)cc4[nH]3)n[nH]c2c1
280 nM,–,COCC#Cc1ccc2cc(-c3n[nH]c4cccnc34)[nH]c2c1
26 nM,400 nM,Cc1ccc2cc(-c3n[nH]c4ccc(NS(=O)(=O)c5cn(C)cn5)cc34)[nH]c2c1
–,1600 nM,CC(C)CN(C)C(=O)c1ccc2cc(-c3n[nH]c4ccccc34)[nH]c2c1
–,90 nM,Cc1ccc2cc(-c3n[nH]c4ccc(NC5CCNCC5)cc34)[nH]c2c1
–,800 nM,Cc1ccc2cc(-c3n[nH]c4ccc(NS(=O)(=O)c5cccc(F)c5)cc34)[nH]c2c1
85 nM,1000 nM,Cc1ccc2cc(-c3n[nH]c4ccc(NS(=O)(=O)c5c(C)nn(C)c5C)cc34)[nH]c2c1
110 nM,–,CN(Cc1ccco1)C(=O)c1ccc2cc(-c3n[nH]c4ccccc34)[nH]c2c1
72 nM,300 nM,Cc1ccc2cc(-c3n[nH]c4ccc(NC(=O)Nc5c(C)noc5C)cc34)[nH]c2c1
310 nM,–,Cc1ccc2cc(-c3n[nH]c4ccc(NC(=O)NCc5ccco5)cc34)[nH]c2c1
60 nM,9400 nM,CN(Cc1ccccc1)C(=O)c1ccc2cc(-c3n[nH]c4ccccc34)[nH]c2c1
36 nM,400 nM,Cc1ccc2cc(-c3n[nH]c4ccc(NS(C)(=O)=O)cc34)[nH]c2c1
190 nM,2000 nM,Cc1ccc2cc(-c3n[nH]c4ccc(NS(=O)(=O)c5sc(C)nc5C)cc34)[nH]c2c1
> 50000 nM,–,Cc1ccc2cc(-c3n[nH]c4cc(NC(=O)C5CCCCC5)ccc34)[nH]c2c1
–,400 nM,Cc1ccc2cc(-c3n[nH]c4ccc(NS(=O)(=O)c5ccccc5)cc34)[nH]c2c1
1700 nM,–,Cc1ccc2cc(-c3n[nH]c4ccc(NCC5CCCCC5)cc34)[nH]c2c1
1000 nM,–,CN(C)CCc1ccc2cc(-c3n[nH]c4cccnc34)[nH]c2c1
–,1000 nM,Cc1ccc2cc(-c3n[nH]c4ccc(NS(=O)(=O)c5ccccc5F)cc34)[nH]c2c1
130 nM,500 nM,Cc1ccc2cc(-c3n[nH]c4ccc(NS(=O)(=O)c5c(C)noc5C)cc34)[nH]c2c1
70 nM,600 nM,COCCc1ccc2cc(-c3n[nH]c4cccnc34)[nH]c2c1
–,120 nM,Cc1ccc2cc(-c3n[nH]c4ccc(NC5CCN(C)CC5)cc34)[nH]c2c1
83 nM,600 nM,CCNC(=O)Nc1ccc2[nH]nc(-c3cc4ccc(C)cc4[nH]3)c2c1

# The next lines start with the compound.
Compound,IC50 [1],IC50 (cells)
CN(C)CC#Cc1ccc2cc(-c3n[nH]c4cccnc34)[nH]c2c1,110 nM,–
Cc1ccc2cc(-c3n[nH]c4ccc(NC(=O)NCc5ccccc5)cc34)[nH]c2c1,750 nM,–
CC(=O)N1CCC(Nc2ccc3[nH]nc(-c4cc5ccc(C)cc5[nH]4)c3c2)CC1,370 nM,–
O=C(NCC1CCCCC1)c1ccc2cc(-c3n[nH]c4ccccc34)[nH]c2c1,–,9500 nM
CCC(=O)Cc1ccc2cc(-c3n[nH]c4cccnc34)[nH]c2c1,100 nM,1100 nM
COCCN(C)C(=O)c1ccc2cc(-c3n[nH]c4ccccc34)[nH]c2c1,70 nM,2000 nM
Cc1ccc2cc(-c3n[nH]c4ccc(NC5CCN(Cc6ccccc6)C5)cc34)[nH]c2c1 (stereo not given),30 nM,350 nM
Cc1ccc2cc(-c3n[nH]c4ccc(NC(=O)NC5CCCCC5)cc34)[nH]c2c1,780 nM,3200 nM
COc1cccc(S(=O)(=O)Nc2ccc3[nH]nc(-c4cc5ccc(C)cc5[nH]4)c3c2)c1,–,900 nM
NC(=O)Cc1ccc2cc(-c3n[nH]c4cccnc34)[nH]c2c1,100 nM,1000 nM
COCC(=O)Nc1ccc2[nH]nc(-c3cc4ccc(OC)cc4[nH]3)c2c1,–,500 nM
c1ccc2c(-c3cc4ccc(NCC5CCCCC5)cc4[nH]3)n[nH]c2c1,–,3800 nM
Cc1ccc2cc(-c3n[nH]c4ccc(NS(=O)(=O)c5ccc(F)cc5)cc34)[nH]c2c1,–,2900 nM
Cc1ccc2cc(-c3n[nH]c4ccc(NC(=O)Nc5ccccc5)cc34)[nH]c2c1,730 nM,–
Cn1cncc1CNC(=O)c1ccc2cc(-c3n[nH]c4ccccc34)[nH]c2c1,20 nM,–
C(#Cc1ccc2cc(-c3n[nH]c4cccnc34)[nH]c2c1)CCc1cccnc1,500 nM,–

Compound,IC50 [1],IC50 (cells)
COc1ccc(S(=O)(=O)Nc2ccc3[nH]nc(-c4cc5ccc(C)cc5[nH]4)c3c2)cc1,–,700 nM
Cc1ccc2cc(-c3n[nH]c4ccc(NC(=O)CN(C)C)cc34)[nH]c2c1,–,600 nM
CCN(CC)C(=O)c1ccc2cc(-c3n[nH]c4ccccc34)[nH]c2c1,–,2100 nM
O=C(NCc1ccccc1)c1ccc2cc(-c3n[nH]c4ccccc34)[nH]c2c1,–,4100 nM
Cc1ccc2cc(-c3n[nH]c4ccc(NCC(C)C)cc34)[nH]c2c1,860 nM,–
Cc1ccc2cc(-c3n[nH]c4ccc(NC(=O)C5CCOCC5)cc34)[nH]c2c1,260 nM,–
c1ccc2c(-c3cc4ccc(N5CCOCC5)cc4[nH]3)n[nH]c2c1,120 nM,1200 nM
CN(c1ccccc1)c1ccc2cc(-c3n[nH]c4ccccc34)[nH]c2c1,310 nM,–
CC(=O)Nc1ccc2[nH]nc(-c3cc4ccc(C)cc4[nH]3)c2c1,–,1000 nM
c1cnc2c(-c3cc4ccc(CC5CCC5)cc4[nH]3)n[nH]c2c1,350 nM,–
COCCNc1ccc2cc(-c3n[nH]c4ccccc34)[nH]c2c1,260 nM,1200 nM
Cc1ccc2cc(-c3n[nH]c4ccc(NCc5ccccc5)cc34)[nH]c2c1,530 nM,–
c1ccc(Cc2ccc3cc(-c4n[nH]c5cccnc45)[nH]c3c2)cc1,210 nM,–
Cc1ccc2cc(-c3n[nH]c4cc(NC(=O)c5ccccc5)ccc34)[nH]c2c1,> 50000 nM,–
Cc1ccc2cc(-c3n[nH]c4ccc(NC5CCC5)cc34)[nH]c2c1,620 nM,–
Cc1ccc2cc(-c3n[nH]c4ccc(NC(=O)c5ccco5)cc34)[nH]c2c1,530 nM,–
